Measurements taken from US20260132103A1, “Bumetanide Derivatives for the Therapy of Stroke and Other Neurological Diseases/Disorders Involving NKCCs” (University of Pittsburgh - Of the Commonwealth System of …, priority 2018, published 2026).

Assays:
Format in all cases: in vivo, mouse
[1] = tested on: transient focal cerebral ischemia (tMCAO) in mice; assay: Corner test after tMCAO; conditions: 1-14 days after tMCAO
Source text: (§1) FIGS. 2A-2D: Efficacy of NKCC1 inhibitors on improving neurological function in mice after tMCAO (see Example 3). (A) Neurological score, (B) corner test, (C) foot-fault test, and (D)-(E) adhesive tape test during 1-14 day after tMCAO. Data are mean±SD, n=4-9. *p<0.05 for DMSO vs STS66, **p<0.05 for DMSO vs STS5, ***p<0.05 for DMSO vs BMT, #p<0.05 for BMT vs STS66, ###p<0.05 for STS5 vs STS66.
Transient focal cerebral ischemia was induced in mice by intraluminal occlusion of the left middle cerebral artery (MCA) for 50 min as described previously (Chen H et al., 2005). Mice were anesthetized with 3% isoflurane in 70%: 30% N2O/O2 until they were unresponsive to the tail pinch test. Animals were then fitted with a nose cone blowing 1.5% isoflurane for anesthesia maintenance. The left common carotid artery was exposed and the occipital artery branches of the external carotid artery were isolated and coagulated. The internal carotid artery was isolated and the extracranial branch was dissected and ligated. […]
Neurological functional deficits in mice were determined by the corner test. […]
The numbers of left and right turns of each mouse during 10 trials were recorded, and turning movements that were not part of a rearing movement were not scored (Zhang L, et al., 2002).

[2] = tested on: transient focal cerebral ischemia (tMCAO) in mice; assay: Adhesive tape removal test after tMCAO; conditions: days not given (tests on days 1-14); for adhesive tape removal time, last value of the span: end of the span 'x to y'; for adhesive tape removal time, first value of the given span: start of the span 'x to y'
Source text: as §1
(§2) Transient focal cerebral ischemia was induced in mice by intraluminal occlusion of the left middle cerebral artery (MCA) for 50 min as described previously (Chen H et al., 2005). Mice were anesthetized with 3% isoflurane in 70%: 30% N2O/O2 until they were unresponsive to the tail pinch test. Animals were then fitted with a nose cone blowing 1.5% isoflurane for anesthesia maintenance. The left common carotid artery was exposed and the occipital artery branches of the external carotid artery were isolated and coagulated. The internal carotid artery was isolated and the extracranial branch was dissected and ligated. A rubber silicon-coated monofilament suture (6-0) was introduced into the internal carotid artery lumen and gently advanced approximately 8-9 mm to block the MCA blood flow for 50 min. The rectal temperature was maintained at 37.0±0.5° C. during surgery through a temperature-controlled heating pad. Achievement of ischemia was confirmed by monitoring regional cerebral blood flow (rCBF) with laser speckle contrast imager (Pericam). For reperfusion, the suture was withdrawn after the MCAO. The incision was closed and the mouse recovered under a heating lamp to maintain the core temperature (36.0-37.0° C.) during the 30-60 min recovery period. After recovery, animals were returned to their cages with free access to food and water.
(§3) Vehicle: DMSO (2 ml/kg body weight/day), the NKCC1 inhibitor bumetanide (BMT, 10 mg/kg body weight/day in DMSO), bumetanide's prodrug STS5 (13 mg/kg body weight/day in DMSO), or the novel NKCC1 inhibitor STS66 according to the invention (12 mg/kg body weight/day in DMSO) was administered via intraperitoneal injection (i.p). The initial half dose of the drugs (BMT, STS5, STS66) was given at 3 h after the onset of reperfusion and the second half dose at 8 h reperfusion in the tMCAO model.
An adhesive tape removal test was used to measure somatosensory deficits. Two pieces of adhesive tape (4 mm×3 mm) were attached to the forepaws in an alternating sequence and with equal pressure by the experimenter before each trial. The removal time is defined as the time at which the animal removes the tape. The trial ended after the adhesive patch was removed or after 2 min had elapsed. Pre-operative training was carried twice per day for three days and were tested on day 1, 2, 3, 5, 7, 10 and 14 days after tMCAO (Bouet V, et al., 2009).

[3] = tested on: transient focal cerebral ischemia (tMCAO) in mice; assay: Brain infarct volume and swelling after transient focal cerebral ischemia (tMCAO); conditions: 24 h reperfusion, i.p.; for hemispheric edema (hemisphere swelling) / infarct volume: normotensive C57BL/6j mice, half dose at 3 h and 8 h reperfusion, BMT 10, STS5 13, STS66 12 mg/kg/day, mean±SD; for infarct volume: male and female combined
Experimental: FIGS. 1A-1C: Efficacy of NKCC1 inhibitors in reducing ischemic infarction, cerebral edema, and the post-stroke survival in normotensive mice after tMCAO (see Example 3). (1A) Experimental protocol and data collection. Transient middle cerebral artery occlusion (tMCAO) was induced in normal C57/b6 mice. DMSO, BMT (10 mg/kg body weight), STS5 (13 mg/kg) or STS66 (12 mg/kg) was administered via intraperitoneal injection (i.p.) as described in method. (1 B) Representative TTC staining images in normotensive mice at 24 h reperfusion with quantitative analysis of infarct volume. Data are mean±SD, n=6-13 (male, n=3-9; female, n=3-4, *p<0.05). Scale: 5 mm. (1C) Percentage hemisphere swelling at 24 h reperfusion. Data are mean±SD, n=6-13, *p<0.05. (1D) Body weight change during 1-14 days after tMCAO. Data are mean±SD, n=5-9 (male, n=4; female, n=2, *p<0.05). (1E) Survival curve during 1-14 day after tMCAO. Data are mean±SD, n=5-9 (male, n=3-7; female, n=2, *p<0.05).
as §2, §3
At 24 h post-reperfusion, mice were anesthetized with 5% isoflurane and then decapitated. Coronal brain slices (2 mm thickness) were stained with 1% 2,3,5-triphenyltetrazolium chloridemonohydrate (TTC) for 20-30 min and brain slices were scanned (Begum G et al., 2015). Ischemic lesions were traced in each slice in a blinded manner, and the total volume of infarction was calculated with correction for edema, as described by Swanson et al., 1990 using ImageJ software. Infarct areas were summed across all slices and multiplied by slice thickness to yield total infarct volume (mm^3). Brain swelling was determined with the following formula. For tMCAO: swelling (% contralateral hemispheric volume)=[(ipsilateral hemispheric volume)−(contralateral hemispheric volume)]/(contralateral hemispheric volume)×100, as described before (Guo Q G et al., 2009; Sunghee Cho et al., 2005).

| SMILES | corner test outcome [1] | adhesive tape removal time, last value of the span [2] | adhesive tape removal time, first value of the given span [2] | hemispheric edema (hemisphere swelling) [3] | infarct volume [3] | infarct volume in female mice ([3]; female mice only, STS5 13, STS66 12 mg/kg/day) |
| --- | --- | --- | --- | --- | --- | --- |
| CCCCNc1cc(C(=O)O)cc(S(N)(=O)=O)c1Oc1ccccc1 [BMT, 3-(butylamino)-4-phenoxy-5-sulfamoylbenzoic acid, reference compound] | exhibited neuroprotective effects | 17.4 ± 7.6 s | 109.4 ± 10.8 s | 15.4±5.9% | 65.2±21.7 mm^3 | – |
| CCCCNc1cc(CNCC(F)(F)F)cc(S(N)(=O)=O)c1Oc1ccccc1 [STS66, 3-(Butylamino)-2-phenoxy-5-[(2,2,2-trifluoroethylamino)methyl]benzenesulfonamide] | definite superior effects at every testing day | 10.3 ± 5.2 s | 29.7 ± 36.0 s | 14.1±6.1% | 69.7±17.9 mm^3 | 74.3±9.2 mm^3 |
